Laboratory results: ChEMBL document CHEMBL1240356, “Efficacy profiles of daptomycin for treatment of invasive and noninvasive pulmonary infections with Streptococcus pneumoniae” (2010)
Activity calls are given as the source filed them. No cut-off for these calls is given here.

Columns and labels:
[1] = system: Streptococcus pneumoniae; experiment: Antibacterial activity against high dose 1.5 x 10^7 CFU Streptococcus pneumoniae serotype 2 infected in therapeutic C57BL/6 mouse model assessed as bacterial count in lung at 20 mg/kg, ip measured after 3 days post infection; type: functional; conditions: route intraperitoneal
[2] = system: Streptococcus pneumoniae; experiment: Antibacterial activity against high dose 1.5 x 10^7 CFU Streptococcus pneumoniae serotype 2 infected in semitherapeutic C57BL/6 mouse model assessed as bacterial count in lung at 20 mg/kg, ip measured after 1 day post infection; type: functional; conditions: route intraperitoneal
[3] = system: Streptococcus pneumoniae; experiment: Antibacterial activity against 1.5 x 10^7 CFU Streptococcus pneumoniae serotype 2 infected in semitherapeutic C57BL/6 mouse model assessed as reduction of bacteremia at 20 mg/kg, ip measured after 1 day post infection; type: functional, organism-based; parameters: dose 20 mg/kg
[4] = system: Streptococcus pneumoniae; experiment: Antibacterial activity against high dose 1.5 x 10^7 CFU Streptococcus pneumoniae serotype 19 infected in semitherapeutic C57BL/6 mouse model assessed as reduction of bacteremia at 20 mg/kg, ip measured after 2 days post infection; type: functional, organism-based; parameters: dose 20 mg/kg
[5] = system: Streptococcus pneumoniae; experiment: Antibacterial activity against high dose 1.5 x 10^7 CFU Streptococcus pneumoniae serotype 19 infected in semitherapeutic C57BL/6 mouse model assessed as reduction of bacteremia at 20 mg/kg, ip measured after 1 day post infection; type: functional, organism-based; parameters: dose 20 mg/kg
[6] = system: Streptococcus pneumoniae; experiment: Antibacterial activity against 1.5 x 10^7 CFU Streptococcus pneumoniae serotype 2 infected in semitherapeutic C57BL/6 mouse model assessed as reduction of bacteremia at 20 mg/kg, ip measured after 2 days post infection; type: functional, organism-based; parameters: dose 20 mg/kg
[7] = system: Streptococcus pneumoniae; experiment: Antibacterial activity against high dose 1.5 x 10^7 CFU Streptococcus pneumoniae serotype 19 infected in semitherapeutic C57BL/6 mouse model assessed as bacterial count in lung at 20 mg/kg, ip measured after 1 day post infection; type: functional; conditions: route intraperitoneal
[8] = system: Streptococcus pneumoniae; experiment: Antibacterial activity against high dose 1.5 x 10^7 CFU Streptococcus pneumoniae serotype 2 infected in therapeutic C57BL/6 mouse model assessed as bacterial count in blood at 20 mg/kg, ip measured after 3 days post infection; type: functional; conditions: route intraperitoneal
[9] = system: Streptococcus pneumoniae; experiment: Antibacterial activity against 1.5 x 10^7 CFU Streptococcus pneumoniae serotype 19 infected in therapeutic C57BL/6 mouse model assessed as survival rate at 20 mg/kg, ip qd beginning at time of infection measured after 6 days post infection; type: functional; conditions: route intraperitoneal
[10] = system: Streptococcus pneumoniae; experiment: Antibacterial activity against high dose 1.5 x 10^7 CFU Streptococcus pneumoniae serotype 2 infected in therapeutic C57BL/6 mouse model assessed as reduction of bacteremia at 20 mg/kg, ip measured after 4 days post infection; type: functional, organism-based; parameters: dose 20 mg/kg

Structure (SMILES): CO/N=C(\C(=O)N[C@@H]1C(=O)N2C(C(=O)O)=C(CSc3nc(=O)c(O)nn3C)CS[C@H]12)c1csc(N)n1 [CEFTRIAXONE]
- log10cfu [1]: 4.6
- log10cfu [2]: 0.8
- Activity [3]: Active
- Activity [4]: Active
- Activity [5]: Active
- Activity [6]: Active
- log10cfu [7]: 0.5
- log10cfu [8]: 3.3
- Activity [9]: 100%
- Activity [10]: Active
